According to patent publication US12312319B2, “Isoxazoline compounds, their preparation methods and use” (METISA BIOTECHNOLOGY CO., LTD, priority 2019, dated 2025):

Key:
Type in all cases: in vivo
Tetranychus cinnabarinus = test: Acaricidal activity against Tetranychus cinnabarinus in greenhouse, bean seedling spraying; conditions: adult mites, 3 days (72 hours) after treatment; for mortality at 0.625 µg/mL: 0.625 mg/L; for mortality at 1.25 µg/mL: 1.25 mg/L; for mortality at 2.5 µg/mL: 2.5 mg/L; for mortality at 5 µg/mL: 5 mg/L
Experimental: The compounds of the invention were determined for the acaricidal activity in greenhouse. The determination method was as follows:
A bean seedling with two true leaves was taken for inoculating 30-40 adult mites of Tetranychus cinnabarinus. After examining the cardinal number, the whole seedling was treated by spraying with a hand-held sprayer, each treatment being replicated 3 times, and then placed in a standard observation room. The number of surviving mites was examined after 72 hours, and the mortality was calculated.

Leucania separata = test: Insecticidal activity against Leucania separata, Airbrush spraying of corn leaf segments; conditions: Mythimna separata, foliar, 72 h, 3rd instar larvae, 3 days after administration; for mortality at 1.25 µg/mL: 1.25 mg/L; for mortality at 2.5 µg/mL: 2.5 mg/L; for mortality at 5 µg/mL: 5 mg/L; for mortality at 10 µg/mL: 10 mg/L
Experimental: (§1) The compound to be determined was dissolved in a mixed solvent of acetone/methanol (1:1), followed by dilution with water containing 0.1% (wt) Tween 80 to a desired concentration.
(§2) The activities of the respective compounds against Leucania separata, Plutella xylostella, and Chilo suppressalis were determined by Airbrush spraying method.
(§3) The determination method was as follows: Corn leaves were cut into 2 cm long segments; the pressure of Airbrush spraying was 10 psi (about 0.7 kg/cm^2); both sides of each leaf segment were sprayed with 0.5 mL of the compound solution to be tested. After drying in the shade, ten 3rd instar larvae were inoculated for each treatment, and each treatment was replicated 3 times. After treatment, they were cultured in an observation room at a temperature of 25° C. and a relative humidity of 60-70%, and the number of surviving insects was examined and the mortality was calculated three days after administration.

Chilo suppressalis = test: Insecticidal activity against Chilo suppressalis, spraying of rice seedlings; conditions: 72 h, 3rd instar larvae, 3 days after administration; for mortality at 0.625 µg/mL: 0.625 mg/L; for mortality at 2.5 µg/mL: 2.5 mg/L; for mortality at 10 µg/mL: 10 mg/L
Experimental: as §1, §2
The determination method was as follows: 1) Preparation of rice seedlings: rice plants were cultivated in a plastic cup with a diameter of 4.5 cm and a height of 4 cm in a thermostatic chamber (temperature 26-28° C., relative humidity 60-80%, illumination 16 hL: 8 hD), and when the rice plants were developed to have 4-5 leaves, strong seedlings with identical growth vigour were selected for chemical treatment, and each treatment was replicated 3 times. 2) Preparation of insects to be tested: Chilo suppressalis, 3rd instar larvae, continuous lab rearing. 3) Inoculation of insects by spraying rice plant stems: The whole rice seedlings were sprayed evenly by using the spraying method, with 15 mL of the compound solution for each treatment. Firstly, the blank control was treated, and then the above procedure was replicated according to the order of test concentration from low to high. After rice seedlings were spray-treated, they were placed in the shade to dry, and the stems about 5 cm from the stem bases were cut off to feed the insects to be tested. Glass culture dishes with a diameter of 90 mm were prepared; each dish was padded with a filter paper at the bottom and added with water to keep moisture; about 5 rice stems were put into each dish and inoculated with 10 larvae, and each culture dish was then sealed with a non-woven and cultured in a thermostatic chamber. The number of residual live insects was examined 3 days after administration.

Plutella xylostella = test: Insecticidal activity against Plutella xylostella, Airbrush spraying of cabbage leaf discs; conditions: foliar, 72 h, 3rd instar larvae, 3 days after administration; for mortality at 5 µg/mL: 5 mg/L; for mortality at 10 µg/mL: 10 mg/L; for mortality at 2.5 µg/mL: 2.5 mg/L
Experimental: as §1, §2
as §3, with “Cabbage” for “Corn”, “made” for “cut”, “into leaf discs with a diameter of” for “into”, “by using a hole puncher;” for “long segments;”, “disc” for “segment”

`CCN1OC[C@@H](N(C(C)=O)C(=O)c2ccc(C3=NOC(c4cc(Cl)cc(Cl)c4)(C(F)(F)F)C3)cc2C)C1=O` (mixture of isomers) [Compound 109] showed a mortality at 0.625 µg/mL (Tetranychus cinnabarinus) of 16.7%, a mortality at 1.25 µg/mL (Tetranychus cinnabarinus) of 70% and a mortality at 2.5 µg/mL (Tetranychus cinnabarinus) of 100%. For the same compound, the mortality at 5 µg/mL (Tetranychus cinnabarinus) was 100%, the mortality at 1.25 µg/mL (Leucania separata) was 26.7% and the mortality at 2.5 µg/mL (Leucania separata) was 63.3%. For the same compound, the mortality at 5 µg/mL (Leucania separata) was 83.3%, the mortality at 10 µg/mL (Leucania separata) was 100% and the mortality at 0.625 µg/mL (Chilo suppressalis) was 80%. The mortality at 2.5 µg/mL (Chilo suppressalis) was 100%, the mortality at 10 µg/mL (Chilo suppressalis) was 100% and the mortality at 5 µg/mL (Plutella xylostella) was 70%. For the same compound, the mortality at 10 µg/mL (Plutella xylostella) was 100%.

`CCN1OC[C@@H](N(C(=O)c2ccc(C3=NOC(c4cc(Cl)cc(Cl)c4)(C(F)(F)F)C3)cc2C)C(=O)C2CC2)C1=O` (mixture of isomers) [Compound 112] gave a mortality at 0.625 µg/mL (Tetranychus cinnabarinus) of 96.7%, a mortality at 1.25 µg/mL (Tetranychus cinnabarinus) of 100% and a mortality at 2.5 µg/mL (Tetranychus cinnabarinus) of 100%. It also gave a mortality at 5 µg/mL (Tetranychus cinnabarinus) of 100%, a mortality at 1.25 µg/mL (Leucania separata) of 80% and a mortality at 2.5 µg/mL (Leucania separata) of 96.7%. It also gave a mortality at 5 µg/mL (Leucania separata) of 100%, a mortality at 10 µg/mL (Leucania separata) of 100% and a mortality at 0.625 µg/mL (Chilo suppressalis) of 96.7%. It also gave a mortality at 2.5 µg/mL (Chilo suppressalis) of 100%, a mortality at 10 µg/mL (Chilo suppressalis) of 100% and a mortality at 5 µg/mL (Plutella xylostella) of 70%. The mortality at 10 µg/mL (Plutella xylostella) was 100%.

`CCN1OC[C@@H](N(C(=O)COC)C(=O)c2ccc(C3=NOC(c4cc(Cl)cc(Cl)c4)(C(F)(F)F)C3)cc2C)C1=O` (mixture of isomers) [Compound 113] was tested, and the mortality at 0.625 µg/mL (Tetranychus cinnabarinus) was 100%, the mortality at 1.25 µg/mL (Tetranychus cinnabarinus) was 100% and the mortality at 2.5 µg/mL (Tetranychus cinnabarinus) was 100%. The mortality at 5 µg/mL (Tetranychus cinnabarinus) was 100%, the mortality at 1.25 µg/mL (Leucania separata) was 100% and the mortality at 2.5 µg/mL (Leucania separata) was 100%. For the same compound, the mortality at 5 µg/mL (Leucania separata) was 100%, the mortality at 10 µg/mL (Leucania separata) was 100% and the mortality at 0.625 µg/mL (Chilo suppressalis) was 86.7%. The mortality at 2.5 µg/mL (Chilo suppressalis) was 100%, the mortality at 10 µg/mL (Chilo suppressalis) was 100% and the mortality at 2.5 µg/mL (Plutella xylostella) was 66.7%. For the same compound, the mortality at 5 µg/mL (Plutella xylostella) was 90% and the mortality at 10 µg/mL (Plutella xylostella) was 100%.

With `CCOCC(=O)N(C(=O)c1ccc(C2=NOC(c3cc(Cl)cc(Cl)c3)(C(F)(F)F)C2)cc1C)[C@@H]1CON(CC)C1=O` (mixture of isomers) [Compound 114] the mortality at 0.625 µg/mL (Tetranychus cinnabarinus) was 100%, the mortality at 1.25 µg/mL (Tetranychus cinnabarinus) was 100% and the mortality at 2.5 µg/mL (Tetranychus cinnabarinus) was 100%. It also gave a mortality at 5 µg/mL (Tetranychus cinnabarinus) of 100%, a mortality at 1.25 µg/mL (Leucania separata) of 100% and a mortality at 2.5 µg/mL (Leucania separata) of 100%. The mortality at 5 µg/mL (Leucania separata) was 100%, the mortality at 10 µg/mL (Leucania separata) was 100% and the mortality at 0.625 µg/mL (Chilo suppressalis) was 83.3%. The mortality at 2.5 µg/mL (Chilo suppressalis) was 100%, the mortality at 10 µg/mL (Chilo suppressalis) was 100% and the mortality at 2.5 µg/mL (Plutella xylostella) was 60%. The mortality at 5 µg/mL (Plutella xylostella) was 86.7% and the mortality at 10 µg/mL (Plutella xylostella) was 100%.

`CCN1OC[C@@H](N(C(=O)c2ccc(C3=NOC(c4cc(Cl)c(F)c(Cl)c4)(C(F)(F)F)C3)cc2C)C(=O)C2CC2)C1=O` (mixture of isomers) [Compound 120] showed a mortality at 0.625 µg/mL (Tetranychus cinnabarinus) of 100%, a mortality at 1.25 µg/mL (Tetranychus cinnabarinus) of 100% and a mortality at 2.5 µg/mL (Tetranychus cinnabarinus) of 100%. It also gave a mortality at 5 µg/mL (Tetranychus cinnabarinus) of 100%, a mortality at 1.25 µg/mL (Leucania separata) of 100% and a mortality at 2.5 µg/mL (Leucania separata) of 100%. It also gave a mortality at 5 µg/mL (Leucania separata) of 100%, a mortality at 10 µg/mL (Leucania separata) of 100% and a mortality at 0.625 µg/mL (Chilo suppressalis) of 96.7%. For the same compound, the mortality at 2.5 µg/mL (Chilo suppressalis) was 100%, the mortality at 10 µg/mL (Chilo suppressalis) was 100% and the mortality at 2.5 µg/mL (Plutella xylostella) was 83.3%. It also gave a mortality at 5 µg/mL (Plutella xylostella) of 100% and a mortality at 10 µg/mL (Plutella xylostella) of 100%.

`CCN1OC[C@@H](N(C(=O)COC)C(=O)c2ccc(C3=NOC(c4cc(Cl)c(F)c(Cl)c4)(C(F)(F)F)C3)cc2C)C1=O` (mixture of isomers) [Compound 121] showed a mortality at 0.625 µg/mL (Tetranychus cinnabarinus) of 100%, a mortality at 1.25 µg/mL (Tetranychus cinnabarinus) of 100% and a mortality at 2.5 µg/mL (Tetranychus cinnabarinus) of 100%. For the same compound, the mortality at 5 µg/mL (Tetranychus cinnabarinus) was 100%, the mortality at 1.25 µg/mL (Leucania separata) was 100% and the mortality at 2.5 µg/mL (Leucania separata) was 100%. For the same compound, the mortality at 5 µg/mL (Leucania separata) was 100%, the mortality at 10 µg/mL (Leucania separata) was 100% and the mortality at 0.625 µg/mL (Chilo suppressalis) was 90%. For the same compound, the mortality at 2.5 µg/mL (Chilo suppressalis) was 100%, the mortality at 10 µg/mL (Chilo suppressalis) was 100% and the mortality at 2.5 µg/mL (Plutella xylostella) was 86.7%. It also gave a mortality at 5 µg/mL (Plutella xylostella) of 100% and a mortality at 10 µg/mL (Plutella xylostella) of 100%.

Work on `CCOCC(=O)N(C(=O)c1ccc(C2=NOC(c3cc(Cl)c(F)c(Cl)c3)(C(F)(F)F)C2)cc1C)[C@@H]1CON(CC)C1=O` (mixture of isomers) [Compound 122] yielded a mortality at 0.625 µg/mL (Tetranychus cinnabarinus) of 100%, a mortality at 1.25 µg/mL (Tetranychus cinnabarinus) of 100% and a mortality at 2.5 µg/mL (Tetranychus cinnabarinus) of 100%. The mortality at 5 µg/mL (Tetranychus cinnabarinus) was 100%, the mortality at 1.25 µg/mL (Leucania separata) was 100% and the mortality at 2.5 µg/mL (Leucania separata) was 100%. For the same compound, the mortality at 5 µg/mL (Leucania separata) was 100%, the mortality at 10 µg/mL (Leucania separata) was 100% and the mortality at 0.625 µg/mL (Chilo suppressalis) was 93.3%. The mortality at 2.5 µg/mL (Chilo suppressalis) was 100%, the mortality at 10 µg/mL (Chilo suppressalis) was 100% and the mortality at 2.5 µg/mL (Plutella xylostella) was 70%. For the same compound, the mortality at 5 µg/mL (Plutella xylostella) was 100% and the mortality at 10 µg/mL (Plutella xylostella) was 100%.

`CCN1OC[C@@H](N(C(=O)OC)C(=O)c2ccc(C3=NOC(c4cc(Cl)cc(Cl)c4)(C(F)(F)F)C3)cc2C)C1=O` (stereo partly shown) [Comparative compound, reference compound] was tested, and the mortality at 1.25 µg/mL (Tetranychus cinnabarinus) was 20%, the mortality at 2.5 µg/mL (Tetranychus cinnabarinus) was 73.3% and the mortality at 5 µg/mL (Tetranychus cinnabarinus) was 100%. For the same compound, the mortality at 1.25 µg/mL (Leucania separata) was 0%, the mortality at 2.5 µg/mL (Leucania separata) was 0% and the mortality at 5 µg/mL (Leucania separata) was 13.3%. For the same compound, the mortality at 10 µg/mL (Leucania separata) was 73.3%, the mortality at 0.625 µg/mL (Chilo suppressalis) was 0% and the mortality at 2.5 µg/mL (Chilo suppressalis) was 0%. It also gave a mortality at 10 µg/mL (Chilo suppressalis) of 16.7%, a mortality at 2.5 µg/mL (Plutella xylostella) of 0% and a mortality at 5 µg/mL (Plutella xylostella) of 30%. It also gave a mortality at 10 µg/mL (Plutella xylostella) of 76.7%.
